Data set [1] can be described thus: Metabolic stability in human liver microsomes. The class given is in vitro ADME. The conditions noted are these: 0.25 μM test compound; for % Parent Remaining (30 min) Ave ± SD: human liver microsomes 2.0 mg/mL, 2 mM NADPH, pH 7.4, 37° C.; for half-life at 0.25 μM: pH 7.4, in vitro t1/2 in human liver microsomes 2.0 mg/mL, NC = not calculable due to <20% metabolism in HLM and flat profiles, read-out: t1/2 (min) Ave ± SD. The procedure:
Microsomal Assay: Human liver microsomes (20 mg/mL) were obtained from Xenotech, LLC (Lenexa, Kans.). β-nicotinamide adenine dinucleotide phosphate, reduced form (NADPH), magnesium chloride (MgCl2), and dimethyl sulfoxide (DMSO) were purchased from Sigma-Aldrich.
Determination of Metabolic Stability: 7.5 mM stock solutions of test compounds were prepared in DMSO. The 7.5 mM stock solutions were diluted to 12.5 μM in acetonitrile (ACN). The 20 mg/mL human liver microsomes were diluted to 2.5 mg/mL in 0.1 M potassium phosphate buffer, pH 7.4, containing 3 mM MgCl2. The diluted microsomes were added to wells of a 96-well deep-well polypropylene plate in triplicate. […] of the 12.5 μM test compound was added to the microsomes and the mixture was pre-warmed for 10 minutes. Reactions were initiated by addition of pre-warmed NADPH solution. The final reaction volume was 0.5 mL and contains 2.0 mg/mL human liver microsomes, 0.25 μM test compound, and 2 mM NADPH in 0.1 M potassium phosphate buffer, pH 7.4, and 3 mM MgCl2. The reaction mixtures were incubated at 37° C., and 50 μL aliquots were removed at 0, 5, 10, 20, and 30 minutes and added to shallow-well 96-well plates which contain 50 μL of ice-cold ACN with internal standard to stop the reactions. The plates were stored at 4° C. for 20 minutes after which 100 μL of water was added to the wells of the plate before centrifugation to pellet precipitated proteins. Supernatants were transferred to another 96-well plate and analyzed for amounts of parent remaining by LC-MS/MS using an Applied Bio-systems API 4000 mass spectrometer. The same procedure was followed for TPA-023 and the positive control, 7-ethoxycoumarin (1 μM). Testing was done in triplicate and individual compounds were tested in two or four different runs.
The in vitro t1/2s for test compounds were calculated from the slopes of the linear regression of % parent remaining (ln) vs incubation time relationship: in vitro t1/2=0.693/k k=−[slope of linear regression of % parent remaining (ln) vs incubation time]. Data analysis was performed using Microsoft Excel Software.
The results of these experiments are shown in Table 3, below, and in FIGS. 1 and 2. In the Table and the two Figures, “% Parent remaining” refers to the percentage of starting material remaining at the specified time point.

The conditions of data set [2]: humans, phase I clinical trial, cited from earlier work.

Consider `[2H]C([2H])([2H])C([2H])([2H])n1ncnc1COc1nn2c(-c3ccccc3F)nnc2cc1C(C([2H])([2H])[2H])(C([2H])([2H])[2H])C([2H])([2H])[2H]` [Compound 105], for which the “% Parent Remaining (30 min) Ave ± SD” value in data set [1] turned out to be 90 ± 0.7%. Same read-out and setting: for `[2H]C([2H])(Oc1nn2c(-c3ccccc3F)nnc2cc1C(O)(C([2H])([2H])[2H])C([2H])([2H])[2H])c1ncnn1C([2H])([2H])C([2H])([2H])[2H]` [Compound 206, 2-(6-((1-d5-Ethyl-1H-1,2,4-triazol-5-1)methoxy-d2)-3-(2-fluorophenyl)-[1,2,4]triazolo[4,3-b]pyridazin-7-yl)propan-1,1,1,3,3,3-d6-2-ol] the value was 92 ± 3.5%; for `[2H]C([2H])([2H])C(O)(c1cc2nnc(-c3ccccc3F)n2nc1OCc1ncnn1CC)C([2H])([2H])[2H]` [Compound 202, 2-(6-((1-ethyl-1H-1,2,4-triazol-5-yl)methoxy)-3-(2-fluorophenyl)[1,2,4]triazolo[4,3-b]pyridazin-7-yl)propan-1,1,1,3,3,3-d6-2-ol], 82 ± 2.8%. Still for that read-out and setting: for `[2H]C([2H])([2H])n1ncnc1COc1nn2c(-c3ccccc3F)nnc2cc1C(C([2H])([2H])[2H])(C([2H])([2H])[2H])C([2H])([2H])[2H]` [Compound 109, 7-d9-tert-Butyl-3-(2-fluorophenyl)-6-((1-d3-methyl-1H-1,2,4-triazol-5-yl)methoxy)-[1,2,4]triazolo[4,3-b]pyridazine] the value was 100 ± 5.7%. The same measure, in the same setting: next, `[2H]C([2H])(Oc1nn2c(-c3ccccc3F)nnc2cc1C(C([2H])([2H])[2H])(C([2H])([2H])[2H])C([2H])([2H])[2H])c1ncnn1C([2H])([2H])C([2H])([2H])[2H]` [Compound 106, 7-d9-tert-Butyl-6-((1-d5-ethyl-1H-1,2,4-triazol-5-yl)-methoxy-d2)-3-(2-fluorophenyl)-[1,2,4]triazolo[4,3-b]pyridazine]: 89 ± 2.5%. `[2H]C([2H])([2H])C(c1cc2nnc(-c3ccccc3F)n2nc1OCc1ncnn1CC)(C([2H])([2H])[2H])C([2H])([2H])[2H]` [Compound 102, 7-d9-tert-Butyl-6-((1-ethyl-1H-1,2,4-triazol-5-yl)methoxy)-3-(2-fluorophenyl)-[1,2,4]-triazolo[4,3-b]pyridazine]: in data set [1], the “% Parent Remaining (30 min) Ave ± SD” value is 80 ± 3.3% and the half-life at 0.25 μM is 85.6 ± 6.1 min. Turning to `CCn1ncnc1COc1nn2c(-c3ccccc3F)nnc2cc1C(C)(C)C` [TPA023, 7-tert-Butyl-6-(1-ethyl-1H-1,2,4-triazol-5-ylmethoxy)-3-(2-fluorophenyl)-1,2,4-triazolo[4,3-b]pyridazine], in data set [1], the “% Parent Remaining (30 min) Ave ± SD” value worked out at 62 ± 3.1% and the half-life at 0.25 μM was 44.5 ± 4.4 min. Further, the sedative effects result in data set [2] (certain doses tested) is “sedative effects at certain doses tested”. Moreover, in data set [2], the anxiolytic effects entry is “anxiolytic effects” and the “effect on alertness, muscle relaxation or memory” value is listed as “no effect”.

In the case of `[2H]C([2H])(Oc1nn2c(-c3ccccc3F)nnc2cc1C(C([2H])([2H])[2H])(C([2H])([2H])[2H])C([2H])([2H])[2H])c1ncnn1C([2H])([2H])[2H]` [Compound 110, 7-d9-tert-Butyl-3-(2-fluorophenyl)-6-((1-d3-methyl-1H-1,2,4-triazol-5-yl)-methoxy-d2)-[1,2,4]triazolo[4,3-b]pyridazine], the “% Parent Remaining (30 min) Ave ± SD” value in data set [1] is 91 ± 7.1%.
